{"source": "patent US6610744B2", "about": "“Methods of treatment with compounds having RARα receptor specific or selective activity” (Allergan, Inc., priority 1995, dated 2003)", "key": {"[1]": {"test_system": "AML-193 cells (acute monocytic leukemia)", "test": "AML 193 cell culture assay (3H-thymidine incorporation)", "format": "cell-based, human", "conditions": "FIG. 2", "outline": "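t-RA from 1 mM ethanol stock, diluted in medium; ethanol-matched controls, subdued light. AML-193 cells (GM-CSF/insulin-dependent) at 1,000 cells/well incubated 96 h at 37 °C with retinoids, then 6 h with 1 μCi [3H]-thymidine; TCA-precipitated DNA counted by scintillation, mean dpm of triplicates ±SEM.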"}, "[2]": {"test": "Weight loss in rats treated for 3 days", "format": "in vivo, rat", "description": "Weight loss or gain that experimental animals experience upon administration of retinoid compounds is another test of the drug's toxicity, with significant weight loss at relatively low doses indicating a significant toxic side effect of the retinoid. In one experiment, groups of 5 rats were treated with varying doses (administered in corn oil) of a test retinoid for 3 days. The rats were euthanized 24 hours after the last dose."}, "[3]": {"test_system": "retinal pigment epithelium (RPE) cells", "test": "Primary RPE culture proliferation", "format": "cell-based, human", "conditions": "FIG. 5; 10^−10 to 10^−6 M, six days treatment", "description": "Primary cultures of human retinal pigment epithelium (RPE) were established from eyes as previously described, (Campochiaro et al., Invest. Opthal & Vis. Sci. 32:65-72 (1991)). 5×10^4 Cells were plated in 16-mm wells of 24-well multiwell plates in Dulbecco's modified Eagle's medium (DMEM Gibco) containing 10% fetal bovine serum (FBS). Cells were treated with ethanol alone (control), ATRA (10^−10 to 10^−6 M) in ethanol, and Compound 42 (10^−10 to 10^−6 M) in ethanol. Cells were fed with fresh media containing the appropriate concentrations of these compounds every two days for a total of six days treatment. Cells were removed from the plates via treatment with trypsin and the number of cells were counted with an electronic cell counter."}}}
{"smiles": "CC(C)(C)c1cc(C(=O)Nc2ccc(C(=O)O)c(F)c2)cc(C(C)(C)C)n1", "note": "[Compound 42]", "values": [{"measurement": "growth of AML 193 malignant cells", "setting": "[1]; 96 hours", "result": "inhibited the growth"}, {"measurement": "growth of AML 193 cells at low concentrations", "setting": "[1]; low concentrations", "result": "inhibit the malignant cell growth at low concentrations"}, {"measurement": "mucocutaneous toxicity", "setting": "[2]; rats, 10, 30 and 90 μmol/kg/day for 3 days", "result": "significant mucocutaneous toxicity was not observed"}, {"measurement": "weight loss compared to control", "setting": "[2]; rats, daily doses up to 90 μmol/kg/day in corn oil for 3 days, FIG. 6, FIG. 7", "result": "virtually no weight loss, as compared to the control, except in a very high dose (90 μmol/kg/day)"}, {"measurement": "RPE cell proliferation", "setting": "[3]", "result": "dose dependent decrease in RPE cell proliferation"}]}
